pIC50: −log10 of the molar value.
Tested on: 485368-065-R3-J5-PDC spheroids with HUVEC/MSC, viability
Assay: Anticancer human tumor 485368-065-R3-J5-PDC patient-derived pancreatic carcinoma cell line growth inhibition [RAS]
Conditions: for pIC50: curve of first compound; for viability, T/C: stronger effect = lower value
Summary of the method: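 Multi-cell-type spheroids: tumor cells plus HUVEC endothelial cells and mesenchymal stem cells. RAS-pathway inhibitors were combined with targeted agents, each dosed in half-log steps down from clinical Cmax, or from 10 microM when Cmax was unknown.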

[1] = second compound 0.000949 µM, first compound 0.0316 µM
[2] = second compound 0.000949 µM, first compound 0.1 µM
[3] = second compound 0.000949 µM, first compound 0.316 µM
[4] = second compound 0.000949 µM, first compound 1 µM
[5] = second compound 0.000949 µM, first compound 3.16 µM
[6] = second compound 0.000949 µM, first compound 10 µM
[7] = second compound 0.003 µM, first compound 0.0316 µM
[8] = second compound 0.003 µM, first compound 0.1 µM
[9] = second compound 0.003 µM, first compound 0.316 µM
[10] = second compound 0.003 µM, first compound 1 µM
[11] = second compound 0.003 µM, first compound 3.16 µM
[12] = second compound 0.003 µM, first compound 10 µM
[13] = second compound 0.00949 µM, first compound 0.0316 µM
[14] = second compound 0.00949 µM, first compound 0.1 µM
[15] = second compound 0.00949 µM, first compound 0.316 µM
[16] = second compound 0.00949 µM, first compound 1 µM
[17] = second compound 0.00949 µM, first compound 3.16 µM
[18] = second compound 0.00949 µM, first compound 10 µM
[19] = second compound 0.03 µM, first compound 0.0316 µM
[20] = second compound 0.03 µM, first compound 0.1 µM
[21] = second compound 0.03 µM, first compound 0.316 µM
[22] = second compound 0.03 µM, first compound 1 µM
[23] = second compound 0.03 µM, first compound 3.16 µM
[24] = second compound 0.03 µM, first compound 10 µM
[25] = second compound 0.0949 µM, first compound 0.0316 µM
[26] = second compound 0.0949 µM, first compound 0.1 µM
[27] = second compound 0.0949 µM, first compound 0.316 µM
[28] = second compound 0.0949 µM, first compound 1 µM
[29] = second compound 0.0949 µM, first compound 3.16 µM
[30] = second compound 0.0949 µM, first compound 10 µM
[31] = second compound 0.3 µM, first compound 0.0316 µM
[32] = second compound 0.3 µM, first compound 0.1 µM
[33] = second compound 0.3 µM, first compound 0.316 µM
[34] = second compound 0.3 µM, first compound 1 µM
[35] = second compound 0.3 µM, first compound 3.16 µM
[36] = second compound 0.3 µM, first compound 10 µM
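Further: spheroids exposed to agents for seven days before readout.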

## CC1(O)CCCC1n1c(=O)c(C(F)F)cc2cnc(NC3CCN(S(C)(=O)=O)CC3)nc21 (stereo not drawn) + CCn1c(-c2cccnc2C(C)OC)c2c3cc(ccc31)N1CCOC(CC(NC(=O)C(C(C)C)N(C)C(=O)C3(F)CCN(C(=O)C#CC(C)(C)N(C)C)CC3)C(=O)N3CCCC(N3)C(=O)OCC(C)(C)C2)C1
Second compound 0.000949 µM
  pIC50: 6.55
Second compound 0.003 µM
  pIC50: 6.14
Second compound 0.00949 µM
  pIC50: 6.24
Second compound 0.03 µM
  pIC50: 6.60
Second compound 0.0949 µM
  pIC50: 6.20
Second compound 0.3 µM
  pIC50: 6.18
[1]
  viability, T/C: 106%
[2]
  viability, T/C: 79.2%
[3]
  viability, T/C: 44.9%
[4]
  viability, T/C: 40.2%
[5]
  viability, T/C: 46%
[6]
  viability, T/C: 24.5%
[7]
  viability, T/C: 91.4%
[8]
  viability, T/C: 82.9%
[9]
  viability, T/C: 50.4%
[10]
  viability, T/C: 41.9%
[11]
  viability, T/C: 48.5%
[12]
  viability, T/C: 21.3%
[13]
  viability, T/C: 92.8%
[14]
  viability, T/C: 77.1%
[15]
  viability, T/C: 42.9%
[16]
  viability, T/C: 48.2%
[17]
  viability, T/C: 44.8%
[18]
  viability, T/C: 18%
[19]
  viability, T/C: 97.6%
[20]
  viability, T/C: 88.6%
[21]
  viability, T/C: 40.8%
[22]
  viability, T/C: 41.2%
[23]
  viability, T/C: 49.2%
[24]
  viability, T/C: 17.4%
[25]
  viability, T/C: 96%
[26]
  viability, T/C: 80%
[27]
  viability, T/C: 48.5%
[28]
  viability, T/C: 41.2%
[29]
  viability, T/C: 49.8%
[30]
  viability, T/C: 17.4%
[31]
  viability, T/C: 105%
[32]
  viability, T/C: 86.1%
[33]
  viability, T/C: 47%
[34]
  viability, T/C: 44.8%
[35]
  viability, T/C: 48.5%
[36]
  viability, T/C: 13.1%

## CCC(CC)c1cc(NC2CCC(N)C2)n2nccc2n1 (stereo not drawn) + CCn1c(-c2cccnc2C(C)OC)c2c3cc(ccc31)N1CCOC(CC(NC(=O)C(C(C)C)N(C)C(=O)C3(F)CCN(C(=O)C#CC(C)(C)N(C)C)CC3)C(=O)N3CCCC(N3)C(=O)OCC(C)(C)C2)C1
Second compound 0.000949 µM
  pIC50: 5.70
Second compound 0.003 µM
  pIC50: 5.70
Second compound 0.00949 µM
  pIC50: 5.70
Second compound 0.03 µM
  pIC50: 5.69
Second compound 0.0949 µM
  pIC50: 5.69
Second compound 0.3 µM
  pIC50: 5.70
[1]
  viability, T/C: 104%
[2]
  viability, T/C: 97.3%
[3]
  viability, T/C: 116%
[4]
  viability, T/C: 133%
[5]
  viability, T/C: 5.59%
[6]
  viability, T/C: 9.62%
[7]
  viability, T/C: 102%
[8]
  viability, T/C: 109%
[9]
  viability, T/C: 116%
[10]
  viability, T/C: 133%
[11]
  viability, T/C: 5.13%
[12]
  viability, T/C: 10.4%
[13]
  viability, T/C: 95.7%
[14]
  viability, T/C: 112%
[15]
  viability, T/C: 101%
[16]
  viability, T/C: 138%
[17]
  viability, T/C: 4.94%
[18]
  viability, T/C: 11.5%
[19]
  viability, T/C: 104%
[20]
  viability, T/C: 103%
[21]
  viability, T/C: 112%
[22]
  viability, T/C: 152%
[23]
  viability, T/C: 4.96%
[24]
  viability, T/C: 11%
[25]
  viability, T/C: 105%
[26]
  viability, T/C: 108%
[27]
  viability, T/C: 114%
[28]
  viability, T/C: 149%
[29]
  viability, T/C: 5.12%
[30]
  viability, T/C: 10.1%
[31]
  viability, T/C: 108%
[32]
  viability, T/C: 111%
[33]
  viability, T/C: 120%
[34]
  viability, T/C: 123%
[35]
  viability, T/C: 4.15%
[36]
  viability, T/C: 9.84%

## Cc1nc(N2CCC3(CC2)COC(C)C3N)c(CO)nc1Sc1ccnc(N)c1Cl (stereo not drawn) + CCn1c(-c2cccnc2C(C)OC)c2c3cc(ccc31)N1CCOC(CC(NC(=O)C(C(C)C)N(C)C(=O)C3(F)CCN(C(=O)C#CC(C)(C)N(C)C)CC3)C(=O)N3CCCC(N3)C(=O)OCC(C)(C)C2)C1
Second compound 0.000949 µM
  pIC50: < 5.00
Second compound 0.003 µM
  pIC50: < 5.00
Second compound 0.00949 µM
  pIC50: < 5.00
Second compound 0.03 µM
  pIC50: < 5.00
Second compound 0.0949 µM
  pIC50: < 5.00
Second compound 0.3 µM
  pIC50: < 5.00
[1]
  viability, T/C: 94.1%
[2]
  viability, T/C: 108%
[3]
  viability, T/C: 86.1%
[4]
  viability, T/C: 79.1%
[5]
  viability, T/C: 78.1%
[6]
  viability, T/C: 70.2%
[7]
  viability, T/C: 95.8%
[8]
  viability, T/C: 98%
[9]
  viability, T/C: 95.4%
[10]
  viability, T/C: 84.8%
[11]
  viability, T/C: 80.3%
[12]
  viability, T/C: 79.5%
[13]
  viability, T/C: 90%
[14]
  viability, T/C: 99.6%
[15]
  viability, T/C: 97.9%
[16]
  viability, T/C: 96.2%
[17]
  viability, T/C: 80.4%
[18]
  viability, T/C: 72.7%
[19]
  viability, T/C: 104%
[20]
  viability, T/C: 96.9%
[21]
  viability, T/C: 85.3%
[22]
  viability, T/C: 103%
[23]
  viability, T/C: 83.9%
[24]
  viability, T/C: 61.7%
[25]
  viability, T/C: 90.5%
[26]
  viability, T/C: 92.8%
[27]
  viability, T/C: 84.2%
[28]
  viability, T/C: 95.1%
[29]
  viability, T/C: 83.9%
[30]
  viability, T/C: 74.2%
[31]
  viability, T/C: 110%
[32]
  viability, T/C: 94.6%
[33]
  viability, T/C: 83.2%
[34]
  viability, T/C: 87.2%
[35]
  viability, T/C: 85.5%
[36]
  viability, T/C: 63.3%

## NC1c2ccccc2OC12CCN(c1cnc3c(N4CCCc5ncccc54)n[nH]c3n1)CC2 (stereo not drawn) + CCn1c(-c2cccnc2C(C)OC)c2c3cc(ccc31)N1CCOC(CC(NC(=O)C(C(C)C)N(C)C(=O)C3(F)CCN(C(=O)C#CC(C)(C)N(C)C)CC3)C(=O)N3CCCC(N3)C(=O)OCC(C)(C)C2)C1
Second compound 0.000949 µM
  pIC50: < 5.00
Second compound 0.003 µM
  pIC50: < 5.00
Second compound 0.00949 µM
  pIC50: < 5.00
Second compound 0.03 µM
  pIC50: < 5.00
Second compound 0.0949 µM
  pIC50: < 5.00
Second compound 0.3 µM
  pIC50: < 5.00
[1]
  viability, T/C: 84.7%
[2]
  viability, T/C: 84.3%
[3]
  viability, T/C: 81.9%
[4]
  viability, T/C: 91.1%
[5]
  viability, T/C: 86.6%
[6]
  viability, T/C: 81.9%
[7]
  viability, T/C: 85.7%
[8]
  viability, T/C: 90.1%
[9]
  viability, T/C: 82.8%
[10]
  viability, T/C: 80.5%
[11]
  viability, T/C: 92.8%
[12]
  viability, T/C: 87.9%
[13]
  viability, T/C: 89.7%
[14]
  viability, T/C: 90.3%
[15]
  viability, T/C: 82.6%
[16]
  viability, T/C: 78.6%
[17]
  viability, T/C: 88.9%
[18]
  viability, T/C: 84.9%
[19]
  viability, T/C: 98.7%
[20]
  viability, T/C: 93%
[21]
  viability, T/C: 82.7%
[22]
  viability, T/C: 79.2%
[23]
  viability, T/C: 83.6%
[24]
  viability, T/C: 81.4%
[25]
  viability, T/C: 82.3%
[26]
  viability, T/C: 86.8%
[27]
  viability, T/C: 81.1%
[28]
  viability, T/C: 77%
[29]
  viability, T/C: 87.7%
[30]
  viability, T/C: 76.5%
[31]
  viability, T/C: 78.3%
[32]
  viability, T/C: 86.1%
[33]
  viability, T/C: 75.3%
[34]
  viability, T/C: 81.1%
[35]
  viability, T/C: 98.2%
[36]
  viability, T/C: 69.7%
